According to ChEMBL document CHEMBL1138537, “Small-molecule scaffolds for CYP51 inhibitors identified by high-throughput screening and defined by X-ray crystallography” (Antimicrob Agents Chemother, 2007):
Activity calls are given as the source filed them. The rule behind the calls is not given here.

Experiments:
[1] = target: T1, Sterol 14alpha-demethylase (Mycobacterium tuberculosis, UniProt P9WPP9)
T1 sequence (P9WPP9 whole entry): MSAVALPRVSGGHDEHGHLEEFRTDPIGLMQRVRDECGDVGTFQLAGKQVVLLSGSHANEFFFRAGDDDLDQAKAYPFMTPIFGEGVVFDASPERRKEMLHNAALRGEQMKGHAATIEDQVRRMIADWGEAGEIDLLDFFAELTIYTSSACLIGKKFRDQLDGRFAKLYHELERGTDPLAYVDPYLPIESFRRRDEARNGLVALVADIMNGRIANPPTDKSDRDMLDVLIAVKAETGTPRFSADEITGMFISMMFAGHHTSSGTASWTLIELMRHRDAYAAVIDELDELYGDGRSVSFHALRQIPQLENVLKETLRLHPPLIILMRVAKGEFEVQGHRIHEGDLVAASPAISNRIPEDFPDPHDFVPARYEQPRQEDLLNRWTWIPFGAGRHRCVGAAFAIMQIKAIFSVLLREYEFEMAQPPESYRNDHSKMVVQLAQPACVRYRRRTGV

[2] = target: T1, Sterol 14alpha-demethylase; remark: listed apart in the source
[3] = system: Mycobacterium tuberculosis; assay: Antimycobacterial activity against Mycobacterium tuberculosis H37Rv at 100 uM after 4 days by alamar blue assay; format: functional, organism-based
[4] = system: Mycobacterium tuberculosis; assay: Antimycobacterial activity against Mycobacterium tuberculosis H37Rv at 200 uM after 4 days by alamar blue assay; format: functional, organism-based
[5] = target: T2, Steroid C26-monooxygenase (Mycobacterium tuberculosis, UniProt P9WPP1)
T2 sequence (P9WPP1 whole entry): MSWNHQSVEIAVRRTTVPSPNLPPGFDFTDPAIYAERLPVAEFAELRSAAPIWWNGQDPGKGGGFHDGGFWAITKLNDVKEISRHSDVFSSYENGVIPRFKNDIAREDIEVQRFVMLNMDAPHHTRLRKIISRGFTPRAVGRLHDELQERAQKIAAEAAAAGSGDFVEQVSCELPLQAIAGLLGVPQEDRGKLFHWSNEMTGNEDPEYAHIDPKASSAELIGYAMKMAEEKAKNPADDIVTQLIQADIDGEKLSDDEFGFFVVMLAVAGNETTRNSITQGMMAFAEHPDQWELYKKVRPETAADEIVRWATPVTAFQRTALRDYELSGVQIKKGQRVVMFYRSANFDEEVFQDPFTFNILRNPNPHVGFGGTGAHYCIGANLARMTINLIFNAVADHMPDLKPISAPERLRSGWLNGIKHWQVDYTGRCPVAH

Cytochrome P450 130 = target: T3, Cytochrome P450 130 (Mycobacterium tuberculosis, UniProt P9WPN5)
T3 sequence (P9WPN5 whole entry): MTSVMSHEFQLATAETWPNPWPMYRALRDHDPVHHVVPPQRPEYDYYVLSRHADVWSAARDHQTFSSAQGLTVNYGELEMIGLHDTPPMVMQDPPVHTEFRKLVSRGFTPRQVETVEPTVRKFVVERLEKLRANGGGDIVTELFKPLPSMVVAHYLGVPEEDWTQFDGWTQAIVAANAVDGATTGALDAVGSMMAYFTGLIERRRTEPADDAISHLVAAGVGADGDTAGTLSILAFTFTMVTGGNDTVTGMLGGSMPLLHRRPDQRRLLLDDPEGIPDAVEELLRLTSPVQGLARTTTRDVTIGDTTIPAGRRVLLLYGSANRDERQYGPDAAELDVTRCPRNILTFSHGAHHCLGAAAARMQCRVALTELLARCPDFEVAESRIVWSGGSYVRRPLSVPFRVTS

[6] = system: Mycobacterium tuberculosis; assay: Antimycobacterial activity against Mycobacterium tuberculosis H37Rv at 250 uM after 4 days by alamar blue assay; format: functional, organism-based
[7] = system: Mycobacterium tuberculosis; assay: Antimycobacterial activity against Mycobacterium tuberculosis H37Rv at 500 uM after 4 days by alamar blue assay; format: functional, organism-based

| Structure (SMILES) | Kd [1] [µM] | Kd [2] [µM] | other results |
| --- | --- | --- | --- |
| CCC1(C)CC(CCN)(c2ccc(OC)cc2)CCO1 (stereo not drawn) | 5 |  |  |
| O=C1c2cc(O)ccc2-c2ccc(O)cc21 |  | 25 |  |
| O=C(c1ccc(O)cc1)c1ccc(O)cc1 |  | 28 | Activity [3]: Active; Activity [4]: Active; Activity ([5]; mycobacterium tuberculosis): Not Active; Activity (Cytochrome P450 130; mycobacterium tuberculosis): Not Active |
| O=C(Nc1ccncc1)C(NS(=O)(=O)c1cccc2nsnc12)c1ccccc1 (stereo not drawn) | 5 |  |  |
| Nc1ccc(NS(=O)(=O)c2ccc(Cl)cc2)cc1 | 5 |  |  |
| CCC(C(=O)Nc1ccncc1)c1ccccc1 (stereo not drawn) |  |  | Activity [6]: Active; Activity [7]: Active; Kd [5]: 2000 µM; Kd (Cytochrome P450 130): 260 µM |
| c1ccc(-c2c[nH]cn2)cc1 |  | 1.3 |  |
| O=C(Nc1ccncc1)C1(c2ccccc2)CCOCC1 | 5 |  |  |
| COc1ccccc1C(CCN)c1ccco1 (stereo not drawn) | 5 |  |  |
| C[C@]12CC[C@@H]3c4ccc(O)cc4CC[C@H]3[C@@H]1C[C@@H](O)[C@@H]2O [ESTRIOL] |  | 100 |  |
| NCC(=O)N1c2ccccc2Sc2ccccc21 | 5 |  |  |
